Values of other authors in patent US20220257506A1, “Alkaline Drink” (WET HOLDINGS (GLOBAL) LIMITED, priority 2019, published 2022).

Experiments:
[1] = system: adrenal and gonadal steroidogenesis; conditions: humans, up to 80 mg/day, basal conditions
[2] = system: testicular endocrine function; conditions: dogs, very high doses
[3] = acute dosing, murine stroke models
[4] = acute administration, humans
[5] = not given; remark: listed apart in the source
[6] = humans

CC[C@H](C)C(=O)O[C@H]1C[C@@H](C)C=C2C=C[C@H](C)[C@H](CC[C@@H]3C[C@@H](O)CC(=O)O3)[C@H]21 [lovastatin]
effect on adrenal and gonadal steroidogenesis [1]: no effect on adrenal and gonadal steroidogenesis | testicular endocrine function [2]: reduction in testicular endocrine function

CCCCCc1cc(O)c2c(c1)OC(C)(C)[C@@H]1CCC(C)=C[C@@H]21 [THC, (−)-trans-Δ^9-tetrahydrocannabinol]
cerebral BF [3]: increased cerebral BF | HR [4]: increased HR | BP and heart rate (acute dosing, anaesthetised animals, conscious animals and animal models of stress or hypertension): reduced BP and heart rate | BF in large arteries (chronic dosing, anaesthetised animals): increased BF in large arteries | BP (chronic dosing, models of stress or hypertension): reduced BP

C=C(C)[C@@H]1CCC(C)=C[C@H]1c1c(O)cc(CCCCC)cc1O [CBD, Cannabidiol]
decrease of blood pressure ([5]; 600 mg single dose, nine healthy male volunteers): about 6 mm Hg | resting blood pressure and blood pressure response to stress ([5]; single dose, particularly cold stress, post-test periods): reduces resting blood pressure and the blood pressure response to stress | abuse or dependence potential [6]: no effects indicative of any abuse or dependence potential
